Holding throughout (type): biochemical
Common to all, as to conditions: HotSpot radiometric assay, 33P-ATP

For test [1], the target named is T1, JNK3 (Homo sapiens, UniProt P53779).
T1 construct: purchased Reaction Biology Corp
Briefly: HotSpot Kinase Assay (Reaction Biology Corp.), anti-JNK3 activity. As to the method: (§1) The anti-JNK3 activity of compounds prepared as in the previous examples was evaluated using a Reaction Biology Corp. HotSpot Kinase Assay. Base reaction buffer was 20 mM HEPES (4-(2-hydroxyethyl)-1-piperazineethanesulfonic acid) at pH 7.5 with 10 mM MgCl2, 1 mM EGTA (ethylene glycol-bis(β-aminoethyl ether)-N,N,N′,N′-tetracetic acid), 0.02% Brij™ 35, 0.02 mg/mL BSA (bovine serum albumin), 0.1 mM Na3VO4, 2 mM DTT (dithiothreitol), and 1% DMSO. Required cofactors were added individually to each kinase reaction.
(§2) Activity against related enzymes JNK1 and P38a was further assessed using the same assay.

Test [2] concerns the target T2, JNK1 (Homo sapiens, UniProt P45983).
T2 construct: purchased Reaction Biology Corp
Briefly: HotSpot Kinase Assay, JNK1. As for the experimental part: as §1, §2

Test [3] concerns the target T3, p38a (Homo sapiens, UniProt Q16539).
T3 construct: purchased Reaction Biology Corp
The experiment in a line: HotSpot Kinase Assay, P38a. As to the method:
as §1, §2

A value given as a limit tells only on which side of the number the result lay.

Experimental findings from patent publication US12448375B2, “Kinase inhibitors for the treatment of neurodegenerative diseases” (Ohio State Innovation Foundation, priority 2019, dated 2025) are described below.

T3 sequence (Q16539 whole entry): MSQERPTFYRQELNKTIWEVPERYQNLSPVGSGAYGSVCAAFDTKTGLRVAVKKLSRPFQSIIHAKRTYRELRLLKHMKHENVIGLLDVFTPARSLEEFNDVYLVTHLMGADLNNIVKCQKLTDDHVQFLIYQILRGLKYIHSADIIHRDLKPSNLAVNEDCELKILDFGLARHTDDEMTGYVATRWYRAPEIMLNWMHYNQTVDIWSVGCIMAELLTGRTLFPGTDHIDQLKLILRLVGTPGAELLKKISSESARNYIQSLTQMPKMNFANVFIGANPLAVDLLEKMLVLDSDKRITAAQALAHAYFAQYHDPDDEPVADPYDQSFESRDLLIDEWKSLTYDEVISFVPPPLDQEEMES
T1 sequence (P53779 whole entry): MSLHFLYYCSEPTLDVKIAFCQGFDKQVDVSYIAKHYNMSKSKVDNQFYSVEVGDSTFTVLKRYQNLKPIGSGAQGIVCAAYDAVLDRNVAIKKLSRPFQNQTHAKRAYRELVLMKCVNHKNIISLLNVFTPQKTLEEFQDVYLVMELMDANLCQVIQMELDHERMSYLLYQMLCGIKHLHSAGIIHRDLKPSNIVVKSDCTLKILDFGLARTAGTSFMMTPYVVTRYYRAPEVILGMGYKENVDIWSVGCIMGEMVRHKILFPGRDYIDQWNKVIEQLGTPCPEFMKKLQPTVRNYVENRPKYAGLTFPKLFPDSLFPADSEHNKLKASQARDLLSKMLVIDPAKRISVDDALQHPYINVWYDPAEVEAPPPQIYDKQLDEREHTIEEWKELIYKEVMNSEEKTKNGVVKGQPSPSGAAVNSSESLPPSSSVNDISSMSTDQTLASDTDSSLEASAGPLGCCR
T2 sequence (P45983 whole entry): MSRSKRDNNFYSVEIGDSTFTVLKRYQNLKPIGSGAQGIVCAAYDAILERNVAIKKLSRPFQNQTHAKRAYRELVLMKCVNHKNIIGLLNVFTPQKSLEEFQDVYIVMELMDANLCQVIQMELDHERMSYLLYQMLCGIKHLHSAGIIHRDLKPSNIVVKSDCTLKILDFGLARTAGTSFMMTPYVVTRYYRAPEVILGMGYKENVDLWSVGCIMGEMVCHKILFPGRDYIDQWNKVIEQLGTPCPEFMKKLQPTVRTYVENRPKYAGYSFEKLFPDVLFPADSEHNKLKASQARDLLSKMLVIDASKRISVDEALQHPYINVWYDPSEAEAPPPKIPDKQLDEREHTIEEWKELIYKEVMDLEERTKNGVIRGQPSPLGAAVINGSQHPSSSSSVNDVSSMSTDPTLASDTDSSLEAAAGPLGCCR

Take `O=C(NC1COC1)c1cc(-n2ncc3nc(Nc4ccccc4Cl)ccc32)cs1` [Compound 52, 4-(5-((2-chlorophenyl)amino)-1H-pyrazolo[4,3-b]pyridin-1-yl)-N-(oxetan-3-yl)thiophene-2-carboxamide]: the figures for the half-inhibitory concentration (IC50) in test [1], in test [2] and in test [3] were under 0.2 µM, over 1 µM and 0.2 to 1 µM, respectively.

For the molecule `CNC(=O)c1cc(-n2ncc3cc(Nc4cccc(OC)c4Cl)c(C)nc32)cs1` [Compound 81, 4-(5-((2-chloro-3-methoxyphenyl)amino)-6-methyl-1H-pyrazolo[3,4-b]pyridin-1-yl)-N-methylthiophene-2-carboxamide], the concentration for half-maximal inhibition (IC50) in test [1] is under 0.2 µM; in test [2], 0.2 to 1 µM; in test [3] it was 0.2 to 1 µM.

Take `CNC(=O)c1cc(-n2ncc3cc(Nc4ccccc4OC)c(F)cc32)cs1` [Compound 80, 4-(6-fluoro-5-((2-methoxyphenyl)amino)-1H-indazol-1-yl)-N-methylthiophene-2-carboxamide]: the IC50 in test [1] was under 0.2 µM; in test [2], over 1 µM; in test [3], 0.2 to 1 µM.

Take `O=C(NC1CC1)c1cc(-n2ncc3cc(Nc4ccccc4Cl)c(F)cc32)cs1` [Compound 31, 4-(5-((2-chlorophenyl)amino)-6-fluoro-1H-indazol-1-yl)-N-cyclopropylthiophene-2-carboxamide]: the half-inhibitory concentration (IC50) in test [1], in test [2] and in test [3] was under 0.2 µM in each case.

In the case of `CC(C)NC(=O)c1cc(-n2ncc3nc(Oc4ccccc4Cl)ncc32)cs1` [Compound 47, 4-(5-(2-chlorophenoxy)-1H-pyrazolo[4,3-d]pyrimidin-1-yl)-N-isopropylthiophene-2-carboxamide], the IC50 in test [1], in test [2] and in test [3] was over 1 µM throughout.

As to `CC(=O)N1CC[C@H](NC(=O)c2cc(-n3ncc4cc(Nc5ccccc5Cl)c(F)cc43)cs2)C1` [Compound 40, (S)—N-(1-acetylpyrrolidin-3-yl)-4-(5-((2-chlorophenyl)amino)-6-fluoro-1H-indazol-1-yl)thiophene-2-carboxamide], the IC50 in test [1] was under 0.2 µM; in test [2] it was 0.2 to 1 µM; in test [3], under 0.2 µM.

For `COCCNC(=O)c1cc(-n2ncc3cc(Oc4ccccc4Cl)ncc32)cs1` [Compound 14, 4-(5-(2-chlorophenoxy)-1H-pyrazolo[3,4-c]pyridin-1-yl)-N-(2-methoxyethyl)thiophene-2-carboxamide], the concentration for half-maximal inhibition (IC50) was under 0.2 µM in test [1], over 1 µM in test [2] and over 1 µM in test [3].

With `COCC(COC)NC(=O)c1cc(-n2ncc3cc(Oc4ccccc4Cl)ncc32)cs1` [Compound 12, 4-(5-(2-chlorophenoxy)-1H-pyrazolo[3,4-c]pyridin-1-yl)-N-(1,3-dimethoxypropan-2-yl)thiophene-2-carboxamide], the results for the half-inhibitory concentration (IC50) in test [1], in test [2] and in test [3] were 0.2 to 1 µM, over 1 µM and over 1 µM, respectively.

Turning to `CC(C)NC(=O)c1cc(-n2ncc3cc(Nc4ccccc4Cl)ncc32)cs1` [Compound 16, 4-(5-((2-chlorophenyl)amino)-1H-pyrazolo[3,4-c]pyridin-1-yl)-N-isopropylthiophene-2-carboxamide], the IC50 in test [1] was under 0.2 µM; in test [2] it was 0.2 to 1 µM; in test [3] it was 0.2 to 1 µM.

For the molecule `O=C(NCCCF)c1cc(-n2ncc3cc(Oc4ccccc4Cl)cnc32)cs1` [Compound 72, 4-(5-(2-chlorophenoxy)-1H-pyrazolo[3,4-b]pyridin-1-yl)-N-(3-fluoropropyl)thiophene-2-carboxamide], the values for the IC50 in test [1], in test [2] and in test [3] were under 0.2 µM, 0.2 to 1 µM and 0.2 to 1 µM, respectively.

With `COc1ccccc1Nc1cc2cnn(-c3csc(C(=O)NC4COC4)c3)c2cc1F` [Compound 77, 4-(6-fluoro-5-((2-methoxyphenyl)amino)-1H-indazol-1-yl)-N-(oxetan-3-yl)thiophene-2-carboxamide], the IC50 is under 0.2 µM in test [1], over 1 µM in test [2] and under 0.2 µM in test [3].

As to `CC(=O)N1CC(NC(=O)c2cc(-n3ncc4cc(Nc5ccccc5Cl)cnc43)cs2)C1` [Compound 71, N-(1-acetylazetidin-3-yl)-4-(5-((2-chlorophenyl)amino)-1H-pyrazolo[3,4-b]pyridin-1-yl)thiophene-2-carboxamide], the figures for the IC50 in test [1], in test [2] and in test [3] were under 0.2 µM, 0.2 to 1 µM and under 0.2 µM, respectively.

`CNC(=O)c1cc(-n2ncc3cc(Nc4c(F)cccc4Cl)c(COC)cc32)cs1` [Compound 152]: the values for the half-inhibitory concentration (IC50) in test [1], in test [2] and in test [3] were under 0.2 µM, 0.2 to 1 µM and 0.2 to 1 µM, respectively.

Regarding `O=C(NC1COC1)c1cc(-n2ncc3cc(Nc4ccccc4Cl)c(F)cc32)cs1` [Compound 34, 4-(5-((2-chlorophenyl)amino)-6-fluoro-1H-indazol-1-yl)-N-(oxetan-3-yl)thiophene-2-carboxamide], the concentration for half-maximal inhibition (IC50) was under 0.2 µM in test [1], over 1 µM in test [2] and 0.2 to 1 µM in test [3].

Turning to `COCCNC(=O)c1cc(-n2ncc3nc(Oc4ccccc4Cl)ccc32)cs1` [Compound 56, 4-(5-(2-chlorophenoxy)-1H-pyrazolo[4,3-b]pyridin-1-yl)-N-(2-methoxyethyl)thiophene-2-carboxamide], the figures for the IC50 in test [1], in test [2] and in test [3] were under 0.2 µM, 0.2 to 1 µM and 0.2 to 1 µM, respectively.

Consider `COCC(COC)NC(=O)c1cc(-n2ncc3nc(Oc4ccccc4Cl)ccc32)cs1` [Compound 48, 4-(5-(2-chlorophenoxy)-1H-pyrazolo[4,3-b]pyridin-1-yl)-N-(1,3-dimethoxypropan-2-yl)thiophene-2-carboxamide], for which the half-inhibitory concentration (IC50) in test [1], in test [2] and in test [3] was over 1 µM throughout.

Consider `O=C(NC1COC1)c1cc(-n2ncc3cc(Oc4ccccc4Cl)ccc32)cs1` [Compound 11, 4-(5-(2-chlorophenoxy)-1H-indazol-1-yl)-N-(oxetan-3-yl)thiophene-2-carboxamide], for which the IC50 in test [1] is under 0.2 µM; in test [2], over 1 µM; in test [3], over 1 µM.

As for `CC1COC(NC(=O)c2cc(-n3ncc4cc(Nc5ccccc5Cl)cnc43)cs2)=N1` (stereo not drawn) [Compound 69, 4-(5-((2-chlorophenyl)amino)-1H-pyrazolo[3,4-b]pyridin-1-yl)-N-(4-methyl-4,5-dihydrooxazol-2-yl)thiophene-2-carboxamide], the IC50 in test [1] is under 0.2 µM; in test [2], 0.2 to 1 µM; in test [3], 0.2 to 1 µM.

With `CC(C)NC(=O)c1cc(-n2ncc3cc(Oc4ccccc4Cl)ncc32)cs1` [Compound 7, 4-(5-(2-chlorophenoxy)-1H-pyrazolo[3,4-c]pyridine-1-yl)-N-isopropylthiophene-2-carboxamide], the IC50 in test [1] was under 0.2 µM; in test [2], over 1 µM; in test [3], over 1 µM.

Take `Cc1sc(C(=O)NC2COC2)cc1-n1ncc2cc(Nc3ccccc3Cl)cnc21` [Compound 68, 4-(5-((2-chlorophenyl)amino)-1H-pyrazolo[3,4-b]pyridin-1-yl)-5-methyl-N-(oxetan-3-yl)thiophene-2-carboxamide]: the values for the IC50 in test [1], in test [2] and in test [3] were under 0.2 µM, 0.2 to 1 µM and over 1 µM, respectively.

The IC50 is the concentration needed to halve the response being measured.
